Laboratory results taken from paper PMC5597121, “The human bitter taste receptor T2R38 is broadly tuned for bacterial compounds” (PLoS ONE, 2017).
“And” between values parts separate entries of the source, which are not always exact repeats. Equal values may be shown once. Read-outs that look alike come from different tables or passages of the source.

Experiments:
T2R38 = target: T1, T2R38 (Homo sapiens, UniProt P59533, A49P/I296V); test: Single cell calcium imaging, Peakrapid cells (Gα16gustducin44) transiently transfected with T2R38; assay type: cell-based; settings: for EC50: concentration-response curve, read-out: EC50; for specific activation of T2R38: ethanol-solubilized; for response of T2R38: solubilized in the aqueous buffer, 2 mM
T1 construct: leader: first 45 amino acids of rat somatostatin receptor subtype 3 (SSTR3) (N); expressed in transfected cells; host or cells: Peakrapid cells (HEK293 derivative, ATCC CRL-2828) stably expressing Galpha16gustducin44, co-transfected with human RTP4
T1 sequence (P59533 1-333 A49P/I296V): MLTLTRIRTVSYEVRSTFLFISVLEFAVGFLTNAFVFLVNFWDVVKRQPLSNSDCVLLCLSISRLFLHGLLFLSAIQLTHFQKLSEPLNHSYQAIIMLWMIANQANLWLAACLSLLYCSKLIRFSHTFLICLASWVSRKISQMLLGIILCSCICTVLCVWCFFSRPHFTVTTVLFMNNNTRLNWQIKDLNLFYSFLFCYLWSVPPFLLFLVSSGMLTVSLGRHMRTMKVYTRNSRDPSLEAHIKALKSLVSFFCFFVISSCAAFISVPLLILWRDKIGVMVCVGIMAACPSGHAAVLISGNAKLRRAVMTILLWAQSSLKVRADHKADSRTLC
Text: The coding sequences of either the functional (PAV, GenBank accession number AY258597.1) and non-functional (AVI, GenBank accession number AF494231.1) were amplified from human genomic DNA by polymerase chain reaction.
These coding sequences were cloned in a pEFIB backbone vector in translational fusion with the coding sequence of a leader sequence corresponding to the 45 first amino acids of the rat somatostatin receptor subtype 3 [20]. The constructs were verified by sequencing. The coding sequence of RTP4 (Genbank accession number AY562238.1) was amplified from human spleen cDNA and cloned a pCI backbone vector.
The Gα16gustducin44 sequence was generated by swapping the last 132 nucleotides of the G α16 with the corresponding terminal sequence of the Gα-gustducin [21] and was cloned in a pIRES-Puro plasmid. This vector was transfected in the Peakrapid cell line (ATCC reference: CRL-2828™; purchased from LGC Standards SARL, Molsheim, FRANCE), HEK293 cell line derivative, cultured in EMEM culture medium (reference BE12-136F; Lonza, Vervier, BELGIUM) supplemented with 10% of foetal bovine serum (Sigma-Aldrich, Bornem, Belgium) and 1 μg/ml of Puromycin to allow the selection of recombinant cell populations. Cell clones expressing the Gα16gustducin44 were selected and the clone presenting the best functional response of T2R38 to phenylthicarbamide was used for the study (see below).
(§1) The Peakrapid cell line expressing stably a chimeric Gα16gustducin44 G protein [21] was used. 40 000 cells were seeded in each well of a black/clear poly-D-lysine cellware pre-coated 96-well plate (Biocoat®, Becton-Dickinson, Erembodegem, Belgium) and transiently transfected with 50 ng of plasmid DNA containing the receptor sequence or not (empty vector) and with 50 ng of chaperone protein RTP4 per well. Forty hours after transfection, cells were incubated with the calcium-sensitive dye Fluo4 (Life Technologies, Oregon, USA) solubilized at 10 μg/ml in a buffer containing EMEM (150 mM NaCl, 5 mM KCl, 2 mM CaCl2, 1.2 mM MgCl2, 10 mM glucose), 10 mM HEPES, 0.01% (v/v) Pluronic F127, 0.1% (w/v) bovine serum albumin. After 1 h incubation at 37°C, cells were rinsed twice with the same buffer without Fluo4 and left in 50 μl buffer (prior ligand injection). Measurement were performed on a platform based on a motorized Axiobserver Z1 fluorescence microscope piloted by a Axiovision software (Zeiss, Jena, Germany) as described previously. For each selected well, images were taken 1 per second, during 30 seconds. 50 μl of the buffer containing the ligand twice concentrated was injected on the 2nd second of the time lapse record.
After time lapse record, the number of responding cells in each injected well was determined using ImageJ 1.34 (Rasband, W.S., ImageJ, National Institutes of Health, Bethesda, Maryland, USA, http://rsb.info.nih.gov/ij/1997-2004), and expressed as the percentage of the surface of a microscope field covered by activated cells with respect to the total surface of the field covered by confluent cells. Automated determination of the surface occupied by responding cells is easier to perform than a cell counting. The resulting percentage of positive surface provided a convenient estimation of the percentage of responding cells, as observed by comparing the percentage of positive surface and percentage of responsive cells determined by direct counting, in the same experiment. In agreement with the literature, the percentage of responding cells was proportional to the agonist concentration. During experiment in each plate, at least 2 wells were tested with phenylthiocarbamide (PTC) at 0.1 mM, which is one of the best characterized agonist of T2R38 in the literature. The activation of T2R38 by PTC allows normalization of the result of other tested molecules. The results were thus expressed as the percentage of PTC activation. […]

[1] = test system: mock transfected cells (empty vector); test: Single cell calcium imaging, control: mock transfected (empty vector) Peakrapid cells; assay type: cell-based, human
Procedure: as §1
After time lapse record, the number of responding cells in each injected well was determined using ImageJ 1.34 (Rasband, W.S., ImageJ, National Institutes of Health, Bethesda, Maryland, USA, http://rsb.info.nih.gov/ij/1997-2004), and expressed as the percentage of the surface of a microscope field covered by activated cells with respect to the total surface of the field covered by confluent cells. Automated determination of the surface occupied by responding cells is easier to perform than a cell counting. The resulting percentage of positive surface provided a convenient estimation of the percentage of responding cells, as observed by comparing the percentage of positive surface and percentage of responsive cells determined by direct counting, in the same experiment. In agreement with the literature, the percentage of responding cells was proportional to the agonist concentration. During experiment in each plate, at least 2 wells were tested with phenylthiocarbamide (PTC) at 0.1 mM, which is one of the best characterized agonist of T2R38 in the literature. The activation of T2R38 by PTC allows normalization of the result of other tested molecules. The results were thus expressed as the percentage of PTC activation. In scaling calcium imaging assays using this latter receptor, concentration-responses curves were performed and data were fitted to a four parameter logistic equation: y=min+ (max− min)/1+10 ^(logEC50−x)nH . Min and max are the minimum and the maximum values of the percentage of cell-activated surface respectively, y is the percentage of cell-activated surface at the x concentration and nH is the Hill coefficient.

[2] = 2mM (no organic solvent), listed as HSL-C4
[3] = 2mM in DMSO 1.5%, listed as HSL-C4
[4] = 2mM in EtOH 0,4%, listed as HSL-C4

CSSC [dimethyldisulfide, dimethyl disulfide]
agonist activity on T2R38 (in words) (T2R38): able to specifically trigger this receptor
EC50 (T2R38): 3000 µM
surface covered by activated cells (given as fraction) (T2R38; dimethyldisulfide 0.000251189, log10[ ] -3.6, experiment 6): 0.0087 and 0.0151
surface covered by activated cells (given as fraction) (T2R38; dimethyldisulfide 0.000398107, log10[ ] -3.4, experiment 6): 0.0033 and 0.0066
surface covered by activated cells (given as fraction) (T2R38; dimethyldisulfide 0.000630957, log10[ ] -3.2, experiment 6): 0.0100 and 0.0078
surface covered by activated cells (given as fraction) (T2R38; dimethyldisulfide 0.001, log10[ ] -3, experiment 6): 0.0079 and 0.0134
surface covered by activated cells (given as fraction) (T2R38; dimethyldisulfide 0.00158489, log10[ ] -2.8, experiment 6): 0.0310 and 0.0369
surface covered by activated cells (given as fraction) (T2R38; dimethyldisulfide 0.00398107, log10[ ] -2.4, experiment 6): 0.1269
logEC50 (T2R38; given in the concentration-response curve): -2.54
Emax (% of positive control) (T2R38; percentage of the response elicited by 0.1 mM PTC): 46 % of positive control
percentage of surface covered by activated cells ([1]; dimethyldisulfide 0.00251189, log10[ ] -2.6): 0.21% and 0.13% and 0.27% and 1.93% and 1.05% and 0.36% and 1.26%

CCCC(=O)N[C@H]1CCOC1=O [C4HSL, N-butyryl-L-homoserine lactone, reference compound]
agonist activity on T2R38 (in words) (T2R38): are not agonists of the receptor in our hands
percentage of surface covered by activated cells (T2R38; [2]): 0.38% and 0.93% and 0.34% and 0.53% and 0.11% and 0.17%
percentage of surface covered by activated cells (T2R38; [3]): 6.92% and 3.48% and 5.97% and 2.36% and 9.56% and 4.46%
percentage of surface covered by activated cells (T2R38; [4]): 0.27% and 1.95% and 2.21% and 0.24% and 0.29% and 1.29%
average calcium response, % of the one induced by 0.1 mM of PTC (T2R38; dissolved in DMSO 1.5% (209 mM)): 33%
specific activation of T2R38 (T2R38): did not trigger a specific activation of T2R38
specific activation of T2R38 (T2R38; listed as HSLC4): remained without effect on the receptor
response of T2R38 (T2R38): did not elicit a response of T2R38
response of T2R38 (T2R38; listed as HSLC4): remained without effect on the receptor
percentage of surface covered by activated cells [1, 2]: 0.08% and 2.07% and 0.35% and 0.32% and 0.65% and 0.13%
percentage of surface covered by activated cells [1, 3]: 0.56% and 1.82% and 1.06% and 0.36% and 0.33% and 0.98%
percentage of surface covered by activated cells [1, 4]: 0.40% and 0.69% and 0.43% and 0.56% and 1.49% and 0.68%

NC(=S)Nc1ccccc1 [PTC, phenylthiocarbamide, reference compound]
percentage of surface covered by activated cells (T2R38; PTC 1e-7 M): 0.32% and 0.0439% and 0.30% and 0.38% and 0.0433% and 0.37%
percentage of surface covered by activated cells (T2R38; PTC 5.31987e-7 M): 0.29% and 0.21% and 0.40% and 0.74%
percentage of surface covered by activated cells (T2R38; PTC 7.66061e-7 M): 0.42% and 0.94% and 0.57%
percentage of surface covered by activated cells (T2R38; PTC 1e-6 M): 0.15% and 0.33% and 0.74% and 1.61% and 0.19% and 0.16%
percentage of surface covered by activated cells (T2R38; PTC 3.16456e-6 M): 0.91% and 1.80% and 0.81% and 1.93% and 1.12% and 1.19%
percentage of surface covered by activated cells (T2R38; PTC 1e-5 M): 9.30% and 8.69% and 5.20% and 5.77% and 8.28% and 3.33%
percentage of surface covered by activated cells (T2R38; PTC 0.0001 M): 16.96% and 16.52% and 12.58% and 13.19% and 14.04% and 11.95%
response of T2R38 PAV transfected cells (S7_fig raw data) (T2R38; PTC 0.1 mM, T2R38 PAV, experiments 1-5): 30% and 29% and 24% and 17% and 23%
percentage of surface covered by activated cells (T2R38; PTC 0.001 M): 16.18% and 8.32% and 10.10% and 7.45% and 11.65% and 8.92%
EC50 (T2R38; mean ± SEM of n = 3 experiments): 9.7 ± 0.4 µM
percentage of surface covered by activated cells ([1]; PTC 1e-7 M): 0.29% and 0.31% and 0.20%
percentage of surface covered by activated cells ([1]; PTC 5.31987e-7 M): 0.69% and 0.47%
percentage of surface covered by activated cells ([1]; PTC 7.66061e-7 M): 0.32% and 0.90%
percentage of surface covered by activated cells ([1]; PTC 1e-6 M): 0.45% and 0.40% and 0.59%
percentage of surface covered by activated cells ([1]; PTC 3.16456e-6 M): 0.30% and 0.15% and 0.74%
percentage of surface covered by activated cells ([1]; PTC 1e-5 M): 0.11% and 0.26% and 0.07%
percentage of surface covered by activated cells ([1]; PTC 0.0001 M): 0.06% and 0.11%
response of empty vector transfected cells (S7_fig raw data) ([1]; PTC 0.1 mM, empty vector, experiments 1-5): 0.078% and 0.55% and 0.518% and 0.35% and 0.26%
percentage of surface covered by activated cells ([1]; PTC 0.001 M): 0.59% and 0.12% and 0.20%
